Test results taken from patent US20020137929A1, “1 - (3-heterocyclylphenyl) isothiourea, -isourea, -guanidine and -amidine herbicidal agents” (Intellectual Property Department, BASF Aktiengesellschaft, priority 1998, published 2002).

What was measured:
[1] = test system: ORYSAT (Rice, Tebonnet); test: Postemergence herbicidal evaluation; assay type: in vivo, Oryza sativa, (L.) Tebonnet; conditions: postemergence
Procedure, shortened: (§1)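 Herbicidal effect was judged by eye on a 0–9 scale covering stand, vigor, deformity, size and chlorosis, compared with controls, four to five weeks after seedlings about two weeks old were sprayed (40 psi, ~0.0156–0.500 kg/ha).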

[2] = test system: ZEAMX (Corn, Field); test: Preemergence herbicidal evaluation; assay type: in vivo, Zea mays; conditions: rated 4-5 weeks after treatment; for ZEAMX rating: preemergence, 0-9 scale
Procedure, shortened: (§2)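 Scores (0–9) reflect visual comparison with control plants for stand, vigor, malformation, size and chlorosis. Compound was applied to the soil after sowing, before emergence, as an aqueous acetone spray (about 0.0156–0.500 kg/ha), and cups were kept in a greenhouse for 4–5 weeks.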

[3] = test system: MOOVA (Monochoria); test: Preemergence weed control under flooded paddy conditions; assay type: in vivo, Monochoria vaginalis; conditions: rated 3-4 weeks after treatment
Procedure, shortened: (§3)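 Flooded-pot preemergence screen with silt loam and seeds in the upper 0.5 cm. Dose about 0.0313 to 0.500 kg/ha, delivered into flood water; visual 0-9 score after 3 to 4 weeks.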

[4] = test system: ECHORC (Watergrass (Calif.)); test: as above; assay type: in vivo, Echinochloa oryzoides; conditions: rated 3-4 weeks after treatment
Procedure, shortened: as §3

[5] = test system: ABUTH (Velvetleaf); test: Postemergence herbicidal evaluation; assay type: in vivo, Abutilon theophrasti; conditions: postemergence
Procedure, shortened: as §1

[6] = test system: ECHCG (Barnyardgrass); test: Postemergence herbicidal evaluation; assay type: in vivo, Echinochloa crus-galli; conditions: postemergence
Procedure, shortened: as §1

[7] = test system: GALAP (Galium); test: Postemergence herbicidal evaluation; assay type: in vivo, Galium aparine; conditions: postemergence
Procedure, shortened: as §1

[8] = test system: SETVI (Foxtail, Green); test: Postemergence herbicidal evaluation; assay type: in vivo, Setaria viridis; conditions: postemergence
Procedure, shortened: as §1

[9] = test system: CYPIR (Rice Flatsedge); test: Preemergence weed control under flooded paddy conditions; assay type: in vivo, Cyperus iria; conditions: rated 3-4 weeks after treatment
Procedure, shortened: as §3

[10] = test system: TRZAWR (Wheat, Winter, cv Riband); test: Preemergence herbicidal evaluation; assay type: in vivo, Triticum aestivum; conditions: rated 4-5 weeks after treatment; for TRZAWR rating: preemergence, 0-9 scale
Procedure, shortened: as §2

[11] = test system: IPOHE (Morningglory, Ivyleaf); test: Preemergence herbicidal evaluation; assay type: in vivo, Ipomoea hederacea; conditions: rated 4-5 weeks after treatment; for IPOHE rating: preemergence, 0-9 scale
Procedure, shortened: as §2

[12] = rate 0.0625 kg/ha, rating scale 0-9
[13] = rate 0.1250 kg/ha, rating scale 0-9
[14] = rate 0.2500 kg/ha, rating scale 0-9
[15] = rate 0.0156 kg/ha, rating scale 0-9
[16] = rate 0.0313 kg/ha, rating scale 0-9

SMILES: COCCN1C(=O)CSC1=Nc1cc(-n2c(=O)cc(C(F)(F)F)n(C)c2=O)c(F)cc1Cl [Compound 155, 3-{4-Chloro-2-fluoro-5-{[3-(2-methoxyethyl)-4-oxo-2-thiazolidinylidene]amino}phenyl}-1-methyl-6-(trifluoromethyl)-2,4(1H,3H)-pyrimidinedione]
- herbicidal rating ORYSAT ([1]; rate 0.0156 kg/ha): 0.0
- herbicidal rating ORYSAT ([1]; rate 0.0313 kg/ha): 0.0
- herbicidal rating ORYSAT ([1]; rate 0.0625 kg/ha): 0.0
- Preemergence herbicidal rating ZEAMX [2, 12]: 0.0
- Preemergence herbicidal rating ZEAMX [2, 13]: 0.0
- Preemergence herbicidal rating ZEAMX [2, 14]: 2.0
- herbicidal effect rating, MOOVA ([3]; 0.0313 kg/ha): 0.0
- herbicidal effect rating, MOOVA ([3]; 0.0625 kg/ha): 0.0
- herbicidal effect rating, MOOVA ([3]; 0.1250 kg/ha): 0.0
- herbicidal effect rating, MOOVA ([3]; 0.2500 kg/ha): 0.0
- herbicidal effect rating, ECHORC ([4]; 0.0313 kg/ha): 4.0
- herbicidal effect rating, ECHORC ([4]; 0.0625 kg/ha): 4.0
- herbicidal effect rating, ECHORC ([4]; 0.1250 kg/ha): 4.0
- herbicidal effect rating, ECHORC ([4]; 0.2500 kg/ha): 4.0
- herbicidal rating ABUTH ([5]; rate 0.0156 kg/ha): 3.0
- herbicidal rating ABUTH ([5]; rate 0.0313 kg/ha): 9.0
- herbicidal rating ABUTH ([5]; rate 0.0625 kg/ha): 9.0
- herbicidal rating ECHCG ([6]; rate 0.0156 kg/ha): 0.0
- herbicidal rating ECHCG ([6]; rate 0.0313 kg/ha): 0.0
- herbicidal rating ECHCG ([6]; rate 0.0625 kg/ha): 0.0
- herbicidal rating GALAP ([7]; rate 0.0156 kg/ha): 0.0
- herbicidal rating GALAP ([7]; rate 0.0313 kg/ha): 0.0
- herbicidal rating GALAP ([7]; rate 0.0625 kg/ha): 0.0
- herbicidal rating SETVI ([8]; rate 0.0156 kg/ha): 0.0
- herbicidal rating SETVI ([8]; rate 0.0313 kg/ha): 0.0
- herbicidal rating SETVI ([8]; rate 0.0625 kg/ha): 0.0
- herbicidal effect rating, CYPIR ([9]; 0.0313 kg/ha): 0.0
- herbicidal effect rating, CYPIR ([9]; 0.0625 kg/ha): 0.0
- herbicidal effect rating, CYPIR ([9]; 0.1250 kg/ha): 0.0
- herbicidal effect rating, CYPIR ([9]; 0.2500 kg/ha): 0.0
- Preemergence herbicidal rating TRZAWR [10, 12]: 0.0
- Preemergence herbicidal rating TRZAWR [10, 13]: 0.0
- Preemergence herbicidal rating TRZAWR [10, 14]: 0.0
- Preemergence herbicidal rating IPOHE [11, 12]: 0.0
- Preemergence herbicidal rating IPOHE [11, 13]: 0.0
- Preemergence herbicidal rating IPOHE [11, 14]: 2.0

SMILES: COc1ccc(CN2C(=O)CSC2=Nc2cc(-n3c(=O)cc(C(F)(F)F)n(C)c3=O)c(F)cc2Cl)c(OC)c1 [Compound 139, 3-{4-Chloro-5-{[3-(2,4-dimethoxybenzyl)-4-oxo-2-thiazolidinylidene]amino}-2-fluorophenyl}-1-methyl-6-(trifluoromethyl)-2,4(1H,3H)-pyrimidinedione]
- herbicidal rating ORYSAT ([1]; rate 0.0156 kg/ha): 2.0
- herbicidal rating ORYSAT ([1]; rate 0.0313 kg/ha): 3.0
- herbicidal rating ORYSAT ([1]; rate 0.0625 kg/ha): 3.5
- Preemergence herbicidal rating ZEAMX [2, 15]: 0.0
- Preemergence herbicidal rating ZEAMX [2, 16]: 0.0
- Preemergence herbicidal rating ZEAMX [2, 12]: 0.0
- Preemergence herbicidal rating ZEAMX [2, 13]: 0.0
- Preemergence herbicidal rating ZEAMX [2, 14]: 1.0
- herbicidal effect rating, MOOVA ([3]; 0.0313 kg/ha): 4.0
- herbicidal effect rating, MOOVA ([3]; 0.0625 kg/ha): 5.0
- herbicidal effect rating, MOOVA ([3]; 0.1250 kg/ha): 7.0
- herbicidal effect rating, MOOVA ([3]; 0.2500 kg/ha): 7.0
- herbicidal effect rating, ECHORC ([4]; 0.0313 kg/ha): 6.0
- herbicidal effect rating, ECHORC ([4]; 0.0625 kg/ha): 7.0
- herbicidal effect rating, ECHORC ([4]; 0.1250 kg/ha): 7.0
- herbicidal effect rating, ECHORC ([4]; 0.2500 kg/ha): 7.0
- herbicidal rating ABUTH ([5]; rate 0.0156 kg/ha): 9.0
- herbicidal rating ABUTH ([5]; rate 0.0313 kg/ha): 9.0
- herbicidal rating ABUTH ([5]; rate 0.0625 kg/ha): 9.0
- herbicidal rating ECHCG ([6]; rate 0.0156 kg/ha): 3.0
- herbicidal rating ECHCG ([6]; rate 0.0313 kg/ha): 2.0
- herbicidal rating ECHCG ([6]; rate 0.0625 kg/ha): 3.0
- herbicidal rating GALAP ([7]; rate 0.0156 kg/ha): 1.0
- herbicidal rating GALAP ([7]; rate 0.0313 kg/ha): 3.0
- herbicidal rating GALAP ([7]; rate 0.0625 kg/ha): 4.0
- herbicidal rating SETVI ([8]; rate 0.0156 kg/ha): 2.0
- herbicidal rating SETVI ([8]; rate 0.0313 kg/ha): 2.0
- herbicidal rating SETVI ([8]; rate 0.0625 kg/ha): 5.0
- herbicidal effect rating, CYPIR ([9]; 0.0313 kg/ha): 2.0
- herbicidal effect rating, CYPIR ([9]; 0.0625 kg/ha): 4.0
- herbicidal effect rating, CYPIR ([9]; 0.1250 kg/ha): 5.0
- herbicidal effect rating, CYPIR ([9]; 0.2500 kg/ha): 6.0
- Preemergence herbicidal rating TRZAWR [10, 15]: 0.0
- Preemergence herbicidal rating TRZAWR [10, 16]: 0.0
- Preemergence herbicidal rating TRZAWR [10, 12]: 0.0
- Preemergence herbicidal rating TRZAWR [10, 13]: 0.0
- Preemergence herbicidal rating TRZAWR [10, 14]: 1.0
- Preemergence herbicidal rating IPOHE [11, 15]: 0.0
- Preemergence herbicidal rating IPOHE [11, 16]: 0.0
- Preemergence herbicidal rating IPOHE [11, 12]: 2.0
- Preemergence herbicidal rating IPOHE [11, 14]: 2.0

SMILES: C=CCOC(=O)CN1C(=O)CSC1=Nc1cc(-n2c(=O)cc(C(F)(F)F)n(C)c2=O)c(F)cc1Cl [Compound 106, Allyl 2-{{2-chloro-5-[3,6-dihydro-3-methyl-2,6-dioxo-4-(trifluoromethyl)-1(2H)-pyrimidinyl]-4-fluorophenyl}imino}-4-oxo-3-thiazolidineacetate]
- herbicidal rating ORYSAT ([1]; rate 0.0158 kg/ha): 2.0
- herbicidal rating ORYSAT ([1]; rate 0.0315 kg/ha): 2.5
- herbicidal rating ORYSAT ([1]; rate 0.0630 kg/ha): 4.0
- ZEAMX rating ([2]; 0.0313 kg/ha): 1.0
- ZEAMX rating ([2]; 0.0625 kg/ha): 2.5
- ZEAMX rating ([2]; 0.1250 kg/ha): 4.0
- ZEAMX rating ([2]; 0.2500 kg/ha): 5.0
- Preemergence herbicidal rating ZEAMX ([2]; rate 0.0156 kg/ha): 0.0
- MOOVA herbicidal effect rating ([3]; 0.0313 kg/ha): 9.0
- MOOVA herbicidal effect rating ([3]; 0.0625 kg/ha): 9.0
- MOOVA herbicidal effect rating ([3]; 0.1250 kg/ha): 9.0
- MOOVA herbicidal effect rating ([3]; 0.2500 kg/ha): 9.0
- ECHORC herbicidal effect rating ([4]; 0.0313 kg/ha): 2.0
- ECHORC herbicidal effect rating ([4]; 0.0625 kg/ha): 4.0
- ECHORC herbicidal effect rating ([4]; 0.1250 kg/ha): 5.0
- ECHORC herbicidal effect rating ([4]; 0.2500 kg/ha): 7.0
- herbicidal rating ABUTH ([5]; rate 0.0158 kg/ha): 9.0
- herbicidal rating ABUTH ([5]; rate 0.0315 kg/ha): 9.0
- herbicidal rating ABUTH ([5]; rate 0.0630 kg/ha): 9.0
- herbicidal rating ECHCG ([6]; rate 0.0158 kg/ha): 2.0
- herbicidal rating ECHCG ([6]; rate 0.0315 kg/ha): 2.0
- herbicidal rating ECHCG ([6]; rate 0.0630 kg/ha): 7.0
- herbicidal rating GALAP ([7]; rate 0.0158 kg/ha): 1.0
- herbicidal rating GALAP ([7]; rate 0.0315 kg/ha): 1.0
- herbicidal rating GALAP ([7]; rate 0.0630 kg/ha): 1.0
- herbicidal rating SETVI ([8]; rate 0.0158 kg/ha): 4.0
- herbicidal rating SETVI ([8]; rate 0.0315 kg/ha): 3.0
- herbicidal rating SETVI ([8]; rate 0.0630 kg/ha): 9.0
- CYPIR herbicidal effect rating ([9]; 0.0313 kg/ha): 5.0
- CYPIR herbicidal effect rating ([9]; 0.0625 kg/ha): 6.0
- CYPIR herbicidal effect rating ([9]; 0.1250 kg/ha): 6.0
- CYPIR herbicidal effect rating ([9]; 0.2500 kg/ha): 9.0
- TRZAWR rating ([10]; 0.0313 kg/ha): 0.0
- TRZAWR rating ([10]; 0.0625 kg/ha): 2.0
- TRZAWR rating ([10]; 0.1250 kg/ha): 3.0
- TRZAWR rating ([10]; 0.2500 kg/ha): 5.0
- Preemergence herbicidal rating TRZAWR ([10]; rate 0.0156 kg/ha): 0.0
- IPOHE rating ([11]; 0.0313 kg/ha): 2.5
- IPOHE rating ([11]; 0.0625 kg/ha): 7.0
- IPOHE rating ([11]; 0.1250 kg/ha): 7.5
- IPOHE rating ([11]; 0.2500 kg/ha): 9.0
- Preemergence herbicidal rating IPOHE ([11]; rate 0.0156 kg/ha): 2.0
